Results taken from patent publication US20250121078A1, “PEPTIDE DRUG CONJUGATES AND THEIR USES” (priority 2023, published 2025).
One block for each molecule: values may come before it. Where a SMILES comes first, the peptide text is derived from it. [ ]: non-standard residue; d: D form. The star is where a group is joined. Paclitaxel(2'-O-succinyl) = CC(=O)O[C@H]1C(=O)[C@@]2(C)[C@H]([C@H](OC(=O)c3ccccc3)[C@]3(O)C[C@H](OC(=O)[C@H](OC(=O)CCC(=O)*)[C@@H](NC(=O)c4ccccc4)c4ccccc4)C(C)=C1C3(C)C)[C@]1(OC(C)=O)CO[C@@H]1C[C@@H]2O; d(hArg(Et2)) = CCN=C(NCC)NCCCC[C@@H](N)C(=O)O; hArg(Et2) = CCN=C(NCC)NCCCC[C@H](N)C(=O)O; dPhe(4-Cl) = N[C@H](Cc1ccc(Cl)cc1)C(=O)O; d2Nal = N[C@H](Cc1ccc2ccccc2c1)C(=O)O; dCit = NC(=O)NCCC[C@@H](N)C(=O)O; d3Pal = N[C@H](Cc1cccnc1)C(=O)O

Molecular target: T1, LHRHR, also known as GnRHR (Homo sapiens, UniProt P30968)
T1 sequence (P30968 1-328): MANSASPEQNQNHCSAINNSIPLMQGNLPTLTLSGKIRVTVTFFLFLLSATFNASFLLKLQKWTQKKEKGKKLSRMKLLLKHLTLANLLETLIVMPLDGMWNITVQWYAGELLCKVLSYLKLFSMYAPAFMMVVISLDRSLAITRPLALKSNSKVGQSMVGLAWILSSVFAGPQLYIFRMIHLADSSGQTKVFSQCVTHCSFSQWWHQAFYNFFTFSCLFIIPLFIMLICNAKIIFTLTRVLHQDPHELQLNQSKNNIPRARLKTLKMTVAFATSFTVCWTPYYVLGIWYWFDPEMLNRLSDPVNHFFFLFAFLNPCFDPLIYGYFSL
Experiment: Radioligand binding assay ([125I]-[D-Trp6]-LHRH displacement)
Details: purified membrane with LHRHR, 0.18 nM [125I]-[D-Trp6]-LHRH, 1 h at 25° C.; read-out: Binding Assay
Protocol: An amount of 2 μg of a purified membrane with LHRHR, also known as GnRHR, was incubated with 0.18 nM [125I]-[D-Trp6]-LHRH and compounds of interest in the incubation buffer (50 mM HEPES, pH 7.4, 5 mM MgCl2, 1 mM CaCl2, and 0.2% BSA). The reaction mixtures were incubated for 1 h at 25° C. and then were transferred to a 96-well GF/B filter plate (Millipore Corp., Billerica, MA, USA), which were terminated by manifold filtration and washed with a wash buffer (50 mM HEPES, pH 7.4, and 100 mM NaCl) for six times. The radioactivity bound to the filter was measured by a Topcount® system (PerkinElmer Inc., Waltham, MA, USA). IC50 values were determined by the concentration of a compound required to inhibit 50% of the specific binding of [125I]-[D-Trp6]-LHRH and calculated by nonlinear regression (GraphPad Software, San Diego, CA, USA). The design of these drug conjugates is to actively targeting LHRH-receptor at tumor site and facilitate drug conjugate accumulation in situ. Therefore, selective and strong binding of the synthetic peptide ligand with the receptor is important to allow enrichment of these conjugates, followed by release of the drug payload in the tumor microenvironment.
Compounds of the invention have a binding as low as 0.17 nM.

Structure (SMILES): CC(=O)N[C@H](Cc1ccc2ccccc2c1)C(=O)N[C@H](Cc1ccc(Cl)cc1)C(=O)N[C@H](Cc1cccnc1)C(=O)N[C@@H](CO)C(=O)N[C@H](CCCCN)C(=O)N[C@H](CCCNC(N)=O)C(=O)N[C@@H](CC(C)C)C(=O)N[C@@H](CCCNC(=N)N)C(=O)N1CCC[C@H]1C(=O)N[C@H](C)C(N)=O [Compound 1] (Ac-[d2Nal][dPhe(4-Cl)][d3Pal]S[dK][dCit]LRP[dA]-NH2)
IC50: > 100 nM

Structure (SMILES): CC(=O)N[C@H](Cc1ccc2ccccc2c1)C(=O)N[C@H](Cc1ccc(Cl)cc1)C(=O)N[C@H](Cc1cccnc1)C(=O)N[C@@H](CO)C(=O)N[C@@H](Cc1ccc(O)cc1)C(=O)N[C@H](CCCCN)C(=O)N[C@@H](CC(C)C)C(=O)N[C@@H](CCCNC(=N)N)C(=O)N1CCC[C@H]1C(=O)N[C@H](C)C(N)=O [Compound 2] (Ac-[d2Nal][dPhe(4-Cl)][d3Pal]SY[dK]LRP[dA]-NH2)
IC50: 0.1 to 1 nM

Structure (SMILES): CC(=O)N[C@H](Cc1ccc2ccccc2c1)C(=O)N[C@H](Cc1ccc(Cl)cc1)C(=O)N[C@H](Cc1cccnc1)C(=O)N[C@@H](CO)C(=O)N[C@@H](Cc1ccc(O)cc1)C(=O)N[C@H](CCCNC(N)=O)C(=O)N[C@H](CCCCN)C(=O)N[C@@H](CCCNC(=N)N)C(=O)N1CCC[C@H]1C(=O)N[C@H](C)C(N)=O [Compound 3] (Ac-[d2Nal][dPhe(4-Cl)][d3Pal]SY[dCit][dK]RP[dA]-NH2)
IC50: 10 to 100 nM

Structure (SMILES): CCNC(=NCCCC[C@@H](NC(=O)[C@H](CCCCN)NC(=O)[C@H](CO)NC(=O)[C@@H](Cc1cccnc1)NC(=O)[C@@H](Cc1ccc(Cl)cc1)NC(=O)[C@@H](Cc1ccc2ccccc2c1)NC(C)=O)C(=O)N[C@@H](CC(C)C)C(=O)N[C@H](CCCCN=C(NCC)NCC)C(=O)N1CCC[C@H]1C(=O)N[C@H](C)C(N)=O)NCC [Compound 4] (Ac-[d2Nal][dPhe(4-Cl)][d3Pal]SK[d(hArg(Et2))]L[d(hArg(Et2))]P[dA]-NH2)
IC50: > 100 nM

Structure (SMILES): CCNC(=NCCCC[C@@H](NC(=O)[C@@H](CCCCNC(=O)CCC(=O)O[C@@H](C(=O)O[C@H]1C[C@@]2(O)[C@@H](OC(=O)c3ccccc3)[C@@H]3[C@]4(OC(C)=O)CO[C@@H]4C[C@H](O)[C@@]3(C)C(=O)[C@H](OC(C)=O)C(=C1C)C2(C)C)[C@@H](NC(=O)c1ccccc1)c1ccccc1)NC(=O)[C@H](CO)NC(=O)[C@@H](Cc1cccnc1)NC(=O)[C@@H](Cc1ccc(Cl)cc1)NC(=O)[C@@H](Cc1ccc2ccccc2c1)NC(C)=O)C(=O)N[C@@H](CC(C)C)C(=O)N[C@H](CCCCN=C(NCC)NCC)C(=O)N1CCC[C@H]1C(=O)N[C@H](C)C(N)=O)NCC [Compound 7] (Ac-[d2Nal][dPhe(4-Cl)][d3Pal]S[dK](Paclitaxel(2'-O-succinyl))[d(hArg(Et2))]L[d(hArg(Et2))]P[dA]-NH2)
IC50: > 100 nM

Other lines, results leading:

IC50: > 100 nM
Structure (SMILES): CCNC(=NCCCC[C@@H](NC(=O)[C@H](Cc1ccc(O)cc1)NC(=O)[C@H](CO)NC(=O)[C@@H](Cc1cccnc1)NC(=O)[C@@H](Cc1ccc(Cl)cc1)NC(=O)[C@@H](Cc1ccc2ccccc2c1)NC(C)=O)C(=O)N[C@H](CCCCN)C(=O)N[C@H](CCCCN=C(NCC)NCC)C(=O)N1CCC[C@H]1C(=O)N[C@H](C)C(N)=O)NCC [Compound 5] (Ac-[d2Nal][dPhe(4-Cl)][d3Pal]SY[d(hArg(Et2))][dK][d(hArg(Et2))]P[dA]-NH2)

IC50: 0.1 to 1 nM
Structure (SMILES): CCNC(=NCCCC[C@H](NC(=O)[C@H](CC(C)C)NC(=O)[C@@H](CCCCN)NC(=O)[C@H](Cc1ccc(O)cc1)NC(=O)[C@H](CO)NC(=O)[C@@H](Cc1cccnc1)NC(=O)[C@@H](Cc1ccc(Cl)cc1)NC(=O)[C@@H](Cc1ccc2ccccc2c1)NC(C)=O)C(=O)N1CCC[C@H]1C(=O)N[C@H](C)C(N)=O)NCC [Compound 12] (Ac-[d2Nal][dPhe(4-Cl)][d3Pal]SY[dK]L[hArg(Et2)]P[dA]-NH2)

IC50: 10 to 100 nM
Structure (SMILES): CC(=O)N[C@H](Cc1ccc2ccccc2c1)C(=O)N[C@H](Cc1ccc(Cl)cc1)C(=O)N[C@H](Cc1cccnc1)C(=O)N[C@@H](CO)C(=O)N[C@@H](Cc1ccc(O)cc1)C(=O)N[C@H](CCCCN)C(=O)N[C@@H](CC(C)C)C(=O)N[C@H](CCCNC(=N)N)C(=O)N1CCC[C@H]1C(=O)N[C@H](C)C(N)=O [Compound 13] (Ac-[d2Nal][dPhe(4-Cl)][d3Pal]SY[dK]L[dR]P[dA]-NH2)
